The values that follow come from PMC10005222, “Development of a Novel Apigenin Dosage form as a Substitute for the Modern Triple Antithrombotic Regimen” (Molecules, 2023).

The test system of series [1] is AA-induced platelet aggregation. In words: AA-induced platelet aggregation in PRP (light transmittance aggregometry). Format: cell-based, human. The note with it: for IC50: Homo sapiens, AA 500 μM, PRP, 1 min pre-incubation, mean ± SD, three platelet preparations. On the procedure:
(§1) The antiplatelet activity of DHA-apigenin, apigenin, DHA, and equimolar solution of apigenin/DHA was studied in platelet rich plasma (PRP) by light transmittance aggregometry (LTA) assay, as previously described. Briefly, PRP was prepared from peripheral venous blood of apparently healthy normolipidemic volunteers. The platelets of PRP were adjusted to a final concentration of 2.5 × 10^8 per Ml with homologous platelet-poor plasma (PPP). The PRP was then pre-incubated with each one of the compounds for 1 min before the initiation of aggregation. The final DMSO concentration in each assay was <0.5% (v/v). In the control experiments, the PRP was incubated with each one of the compounds for 5 min in order to evaluate whether each tested compound was a platelet activator. Platelet aggregation induced by ADP (10 Μm), AA (500 Μm), and TRAP-6 (10 Μm) was determined in aliquots of 0.5 Ml of PRP, at 37 °C under continuous stirring at 1200 rpm, in a Chronolog Lumi-Aggregometer (model 700 4-channel) equipped with the AggroLink software package. The maximal aggregation, achieved within 4 min after the addition of each agonist, was determined and expressed as a percentage of 100% light transmission calibrated for each specimen (maximal percentage of aggregation; MPA). Τhe inhibitory efficacy of each compound tested was also expressed as IC50 values (concentration that induces 50% inhibition of platelet aggregation). All aggregation studies were conducted within 3 h after blood was drawn. The inhibition of platelet aggregation (IPA) values induced by each compound was calculated using the […].

Series [2] relates to ADP-induced platelet aggregation. Kind of series: ADP-induced platelet aggregation in PRP (light transmittance aggregometry). In kind it is cell-based, human. Conditions: for IC50: Homo sapiens, ADP 10 μM, PRP, 1 min pre-incubation, mean ± SD, three platelet preparations. The procedure: as §1
Series [3] relates to TRAP-6-induced platelet aggregation. Kind of series: TRAP-6-induced platelet aggregation in PRP (light transmittance aggregometry). Format: cell-based, human. Conditions: for IC50: Homo sapiens, TRAP-6 10 μM, PRP, 1 min pre-incubation, mean ± SD, three platelet preparations; for enhanced inhibitory activity with respect to DHA: TRAP-6 induced platelet aggregation. On the procedure:
as §1

Series [4] is described as follows: Serum pharmacokinetics after oral administration in C57BL/6J mice. Conditions: oral 50 mg/kg in olive oil; for Tmax / half-life / AUC(0-t) / Vd/F / Cmax / AUC(0-inf): male, mouse; for AUC(0-t): 0-6 h, read-out: AUC0−t, Estimate (%CV); for Vd/F / Cl/F: normalized to fraction absorbed; for Vd/F: read-out: Vz/F; for Cmax: read-out: Cmax, Estimate (%CV); for AUC(0-inf): to be considered with caution (high extrapolation); for AUC % extrapolated: based on λz, 50 mg/kg. Format: in vivo. The procedure:
For the detection of the conjugate, the EVOQ Elite ER TQ (Bruker) mass spectrometer was operated in negative ionization electrospray mode (ESI) under multiple reaction monitoring (MRM). […] Optimum ESI conditions were determined as follows: spray voltage, 4500 V; heated probe gas flow, 50 units; heated probe temperature 350℃; cone gas flow, 20 units; cone temperature, 200 °C; nebulizer gas flow, 40 units. Total control of LC and MS, as well as data acquisition, were performed with MSWS software, Version 8.2.1 (Bruker). For the pharmacokinetic studies, a Xevo-G2-XS-QtoF mass spectrometer, coupled to a Waters UPLC I-Class Binary Solvent Manager (Waters Corp., Milford, MA, USA) was used. The mobile phases were composed of water (LC-MS grade) with formic acid 0.1% (A), and acetonitrile (LC-MS grade) with formic acid 0.1% (B). A constant flow of […] was used, with an injection volume of 1 μL; the gradient was as follows: initial phase (B) concentration 20%, increased to 100% within 1.5 min, then kept constant for 1 min, and reduced to 20% until the end of the run (4 min total runtime). The MS conditions were as follows: the scan range was set at m/z 100–600, and the source voltage was 0.8 Kv in negative ionization electrospray mode (ESI). The source temperature was 550 °C, the flow of desolvation gas (N2) was set to 1000 L per hour, and the cone gas flow was set to 20 L per hour. For MS/MS, the collision energy ramp was set from 20 eV to 40 eV, and the declustering potential was 40 V. The column used was the Acquity UPLC® BEH C18 1.7 µm device. For the post processing and analysis of the acquisition data, UNIFY soFTware was used.
60 male 8-week-old C57BL/6J wild type mice, with mean weight equal to 23.5 ± 2.1 g were randomly divided in two groups (a, b) of 30 and each one received different treatment as follows: (a) the apigenin hybrid formulation and (b) the parent apigenin, dissolved in extra virgin olive oil, orally via the gavage technique at the dose of 50 mg/kg. Mice in each group were randomly further divided in 6 subgroups of five, each group representing one sampling time point (15, 30, 60, 120, 240, and 360 min). Animals were anaesthetized with sevoflurane, and sacrificed to collect blood samples via cardiac puncture, in non-heparinized Eppendorf ® Tubes, at the time point of interest after administration. Blood samples were centrifuged (10,000× g rpm, 15 min, 4 °C), and serum was collected, frozen and stored at −70 °C until further processing. In order to quench the reactions, 395 μL of MeOH were added to each sample, along with IS (5 μL of Rosmarinic acid). The samples were vortexed and centrifuged at 10,000× g for 10 min. Then, the supernatant was taken, filtered and transferred to vials for analysis, as described above.
The Phoenix^TM (www.certara.com)®. software was used for data analysis using non-compartmental PK analysis (NCA). More specifically, sparse sampling NCA was performed to determine basic serum PK parameters, namely AUC0−t, AUCinf, Cmax and Tmax, and to calculate the relative oral bioavailability of apigenin after apigenin hybrid formulation and native apigenin oral administration. To calculate the PK parameters and their standard errors (SE), the mean concentration curve is calculated and used in conjunction with the available subject information. The log-linear trapezoidal method was used to calculate AUC0−t and AUCinf, with extrapolation to infinity by dividing the last concentration by the terminal slope, λz (kel, estimated by linear regression analysis on the last three points of the log-transformed concentration vs. time plot).

Series [5] in a line: Human plasma stability assay (LC-MS/MS). In kind it is in vitro ADME. The note with it: 37 °C. The procedure:
Liquid chromatography was performed using an Advance Ultra High Performance Liquid Chromatography (UHPLC) system (Bruker, Germany). The column oven was set at 40 °C. For the separation, a Kinetex C18 column 100 mm × 2.1 mm, 2.6 μm, with a 2.1 mm pro-guard column, was used (Phenomenex). The mobile phases were composed of water (LC-MS grade) with formic acid 0.1% (A) and MeOH (B). The gradient followed at a constant flow of […] was: initial phase (B) concentration 5%, increased to 100% within 1 min, then kept constant for 5.5 min, and reduced to 5% until the end of the run. […] The injection volume was 2 μL, while the auto-sampler temperature was 15 °C.
For the detection of the conjugate, the EVOQ Elite ER TQ (Bruker) mass spectrometer was operated in negative ionization electrospray mode (ESI) under multiple reaction monitoring (MRM). […] Optimum ESI conditions were determined as follows: spray voltage, 4500 V; heated probe gas flow, 50 units; heated probe temperature 350℃; cone gas flow, 20 units; cone temperature, 200 °C; nebulizer gas flow, 40 units. Total control of LC and MS, as well as data acquisition, were performed with MSWS software, Version 8.2.1 (Bruker). […]
The in vitro stability of the apigenin molecular hybrid was evaluated in human plasma (Ph was adjusted to 7.4) at 37 °C. […]

Where [6] appears, read: ADP-induced platelet aggregation.

Usually IC50 stands for the concentration that gives 50% inhibition. Higher therefore signals weaker potency in that assay. On to `CC/C=C\C/C=C\C/C=C\C/C=C\C/C=C\C/C=C\CCC(=O)O` [DHA, Cis-4,7,10,13,16,19-Docosahexanoic acid, reference compound], for which the results for the IC50 in series [1], in series [2] and in series [3] were 130 ± 18 µM, 920 ± 53 µM and 680 ± 42 µM, respectively.

What is called Tmax is the time from dosing to the highest level. The term Cmax denotes the peak of the concentration-time curve. As a reminder, the AUC(0-inf) is total exposure, with the tail of the curve extrapolated. On to `O=c1cc(-c2ccc(O)cc2)oc2cc(O)cc(O)c12` [Apigenin, apigenin], for which the midpoint of inhibition in series [1], the IC50, lay at 850 ± 45 µM. The molecule also registered an IC50 in series [2] of 607 ± 35 µM. In addition, in series [4], the Tmax is 2 h, the half-life is 3.44 h, the AUC(0-t) is 35 ng·h/mL and the Vd/F amounted to 106 L. In series [4], the Cmax was 10.8 ng/mL, the AUC(0-inf) is 58.8 ng·h/mL, the AUC % extrapolated is 40% and the Cl/F amounted to 21.3 L/h. In addition, in series [4] (listed as native apigenin), the AUC % extrapolated is on record as 40.5%. In addition, the IC50 in series [3] was found to be 56 ± 8 µM.

As to `CC/C=C\C/C=C\C/C=C\C/C=C\C/C=C\C/C=C\CCC(=O)Oc1ccc(-c2cc(=O)c3c(O)cc(O)cc3o2)cc1` [4′-DHA-apigenin hybrid, 4′-DHA-apigenin], the “enhanced inhibitory activity with respect to apigenin” value in series [1] (AA-induced platelet aggregation) was determined as 2 fold. The IC50 in series [1] was 353 ± 36 µM. In series [2] (setting [6]), the “enhanced inhibitory activity with respect to DHA” value is recorded as ~3 fold and the “enhanced inhibitory activity with respect to apigenin” value was ~2 fold. The same molecule returned a 50% inhibitory concentration (IC50) in series [2] of 362 ± 20 µM. Moreover, the “parent compound still present” value in series [5] (after 30 min of incubation) is recorded as 17.3%. For the same molecule, the half-life at 5 µM in series [5] (pH 7.4, read-out: t1/2 in human plasma) was ~0.217 h. In addition, in series [4], the Tmax was 2 h, the half-life was 17.4 h, the AUC(0-t) is 91.7 ng·h/mL and the Vd/F worked out at 66.5 L. Further, in series [4], the Cmax is 17.8 ng/mL, the AUC(0-inf) is 471 ng·h/mL and the Cl/F stood at 2.65 L/h. Further, the AUC % extrapolated in series [4] (listed as 4′-DHA-Apigenin) was 80%. The AUC % extrapolated in series [4] (listed as 4′-DHA-apigenin) is recorded as 80.5%. In addition, in series [3], the IC50 was found to be 52 ± 12 µM and the “enhanced inhibitory activity with respect to DHA” value was “more than 12 fold”. Moreover, the “enhancement with respect to native apigenin” value in series [3] (TRAP-6) worked out at 2 fold. Moreover, the “enhanced inhibitory activity with respect to DHA” value in series [3] (listed as 4′-DHA-apigenin) stood at 12 fold.
